pIC50: −log10 of the molar value.
System: GDF8 signaling (p-SMAD-3 (Ser423/425))
Test: AlphaScreen SureFire SMAD3 (p-Ser423/425) assay, GDF8-stimulated cells (GDF pSMAD)
Type: cell-based
Conditions: Mus musculus, MPC-11, MPC11; GDF8-stimulated; p-SMAD3 AlphaScreen; read-out: GDF pSMAD (MPC11) (inhibition of GDF8 signaling)
Description: Biological Example 1: AlphaScreen® SureFire® SMAD3 (p-Ser423/425) Assay
The p-SMAD-3 (Ser423/425) SureFire® assay has been designed to measure the phosphorylation of endogenous cellular p-SMAD-3 (Ser423/425) in cell lysates and is a system for the screening of both modulators of receptor activation (e.g. agonists and antagonists) as well as agents acting intracellularly, such as small molecule inhibitors of upstream events. The assay will measure p-SMAD-3 (Ser423/425) activation by either cloned or endogenous receptors, and can be applied to primary cells.
P-SMAD-3 (Ser423/425) SureFire® Assay Protocols
Step A: Preparation of Buffers
1× Lysis buffer: 1 ml of 5× Lysis buffer was diluted with 4 ml of sterile water. After dilution, excess 1× Lysis buffer can be frozen and thawed up to 5 times without loss in activity.
Activation buffer: The buffer was warmed slowly to 37° C. and gently mixed to re-suspend. Activation buffer can be stored at room temperature with no loss in activity.
Reaction buffer: The buffer was kept at 4° C. while in use.
AlphaScreen® Protein A IgG Kit: The kit was stored at 4° C. in the dark.
Reaction buffer+Activation buffer+AlphaScreen® Acceptor beads: Reaction buffer (40 parts), Activation Buffer (10 parts) and Acceptor beads (1 part) were mixed and the mixture was stored at room temperature and used the same day. Mixture was added to 384-well plates; excess mixture was discarded.
Dilution buffer+AlphaScreen® Donor beads: Dilution buffer (20 parts) and Donor beads (1 part) were mixed and the mixture was stored at room temperature and used the same day. Excess mixture was discarded.
Assay control samples: After reconstitution in 250 μl of water, lysates were at −20° C. in single use aliquots.
Step B: Preparation of Samples and Cells
96-well Assay Protocol for 293FT and RMS13 adherent cells can be carried out manually or in high throughput with liquid handling robots.
The cells (80 μL of cells for 96 well plates) were plated in collagen coated tissue culture plates in RPMI or FreeStyle medium (Invitrogen) and incubated overnight. For manual analysis, 6 plates for GDF8, 6 plates for TGFβ, and optionally 6 plates for AlkSca(ALK5 constitutively active) were used.
The compound dilution plates were prepared as follows: 12 μL of DMSO was transferred into first column of 96-well plate, and 16 μL of DMSO was transferred into columns 2-12 of the 96-well plate. 12 μL of compound solution was transferred into first column of the DMSO-containing 96-well plate. Three-fold dilution was performed up to column 10 of the DMSO-containing 96-well plate.
Step C: Treatment and Analysis
The plate containing cells were treated with compounds for about 10 minutes, and then ligand was added. GDF8 or TGFb was added to plates to stimulate. 293FL cells were stimulated for 90 minutes at 37° C.; and RMS13 cells were stimulated for 60 minutes at 37° C. The medium was then removed from the cells, and 1× Lysis Buffer (about 25 μL) was added and the plate was gently agitated on plate shaker for 5-10 minutes.
The lysate (5 μL) was then placed into 384-well shallow plates avoiding the generation of bubbles. To this, the Reaction Buffer+Activation Buffer+AlphaScreen® Acceptor beads mixture (5 μL) was added. The plate was sealed with adhesive cover and shielded from light (e.g., with metal foil), and agitated gently on plate shaker for 2 hours at room temperature.
Dilution buffer+AlphaScreen® Donor beads (2 μL) was then added, and the plate was intubated on the plate shaker for an additional 1½ hours. After completion, the plate was read on Synergy-4 or Enspire plate reader, using AlphaScreen® pSMAD3® settings.
Representative results for inhibition of GDF8 signaling are shown in Table 2(data=GDF pSMAD (MPC11) (μM)): […]

Structure (SMILES) | pIC50
Oc1ccc(-c2ncccc2-c2ccc3[nH]ncc3c2)cc1 [Compound 121, 4-(3-(1H-Indazol-5-yl)pyridin-2-yl)phenol] | 5.27
Cc1cc(-c2ncccc2-c2ccc3[nH]ncc3c2)ccc1O [Compound 122, 4-(3-(1H-Indazol-5-yl)pyridin-2-yl)-2-methylphenol] | 5.39
COc1cc(-c2ncccc2-c2ccc3[nH]ncc3c2)ccc1F [Compound 124, 5-(2-(4-Fluoro-3-methoxyphenyl)pyridin-3-yl)-1H-indazole] | 6.26
Fc1ccc(-c2ncccc2-c2cnc3cn[nH]c3c2)cc1F [Compound 137, 6-(2-(3,4-Difluorophenyl)pyridin-3-yl)-1H-pyrazolo[4,3-b]pyridine] | 4.64
Cc1cc(-c2ncccc2-c2cnc3cn[nH]c3c2)ccc1F [Compound 138, 6-(2-(4-Fluoro-3-methylphenyl)pyridin-3-yl)-1H-pyrazolo[4,3-b]pyridine] | 5.36
Cc1cccc(-c2ncccc2-c2cnc3cn[nH]c3c2)c1 [Compound 139, 6-(2-m-Tolylpyridin-3-yl)-1H-pyrazolo[4,3-b]pyridine] | 5.47
Cc1ccc(F)c(-c2ncccc2-c2cnc3cn[nH]c3c2)c1 [Compound 140, 6-(2-(2-Fluoro-5-methylphenyl)pyridin-3-yl)-1H-pyrazolo[4,3-b]pyridine] | 5.54
N#Cc1cccc(-c2ncccc2-c2cnc3cn[nH]c3c2)c1 [Compound 141, 3-(3-(1H-Pyrazolo[4,3-b]pyridin-6-yl)pyridin-2-yl)benzonitrile] | 4.73
COc1cccc(-c2ncccc2-c2cnc3cn[nH]c3c2)c1 [Compound 142, 6-(2-(3-Methoxyphenyl)pyridin-3-yl)-1H-pyrazolo[4,3-b]pyridine] | 5.92
COc1cc(-c2ncccc2-c2cnc3cn[nH]c3c2)ccc1F [Compound 143, 6-(2-(4-Fluoro-3-methoxyphenyl)pyridin-3-yl)-1H-pyrazolo[4,3-b]pyridine] | 4.92
Oc1cccc(-c2ncccc2-c2cnc3cn[nH]c3c2)c1 [Compound 144, 3-(3-(1H-Pyrazolo[4,3-b]pyridin-6-yl)pyridin-2-yl)phenol] | 5.03
Cc1cc(-c2ncccc2-c2ccc3c(cnn3C)c2)ccc1F [Compound 145, 5-(2-(4-Fluoro-3-methylphenyl)pyridin-3-yl)-1-methyl-1H-indazole] | 5.95
Cc1cccc(-c2ncccc2-c2ccc3c(cnn3C)c2)c1 [Compound 146, 1-Methyl-5-(2-m-tolylpyridin-3-yl)-1H-indazole] | 6.21
CCc1cccc(-c2ncccc2-c2ccc3[nH]ncc3c2)c1 [Compound 149, 5-(2-(3-Ethylphenyl)pyridin-3-yl)-1H-indazole] | 6.19
c1cc(-c2ncccc2-c2ccc3[nH]ncc3c2)cc(C2CC2)c1 [Compound 150, 5-(2-(3-Cyclopropylphenyl)pyridin-3-yl)-1H-indazole] | 6.68
CCc1cccc(-c2ncccc2-c2cnc3[nH]ncc3c2)c1 [Compound 151, 5-(2-(3-Ethylphenyl)pyridin-3-yl)-1H-pyrazolo[3,4-b]pyridine] | 6.17
c1cc(-c2ncccc2-c2cnc3[nH]ncc3c2)cc(C2CC2)c1 [Compound 152, 5-(2-(3-Cyclopropylphenyl)pyridin-3-yl)-1H-pyrazolo[3,4-b]pyridine] | 7.31
Cc1ccc(F)c(-c2ncccc2-c2cnc3[nH]ncc3c2)c1 [Compound 153, 5-(2-(2-Fluoro-5-methylphenyl)pyridin-3-yl)-1H-pyrazolo[3,4-b]pyridine] | 6.35
N#Cc1cccc(-c2ncccc2-c2cnc3[nH]ncc3c2)c1 [Compound 154, 3-(3-(1H-Pyrazolo[3,4-b]pyridin-5-yl)pyridin-2-yl)benzonitrile] | 5.88
COc1cccc(-c2ncccc2-c2cnc3[nH]ncc3c2)c1 [Compound 155, 5-(2-(3-Methoxyphenyl)pyridin-3-yl)-1H-pyrazolo[3,4-b]pyridine] | 6.65

Structure (SMILES) | pIC50
Oc1cccc(-c2ncccc2-c2cnc3[nH]ncc3c2)c1 [Compound 156, 3-(3-(1H-Pyrazolo[3,4-b]pyridin-5-yl)pyridin-2-yl)phenol] | 5.75
COc1cc(-c2ncccc2-c2cnc3[nH]ncc3c2)ccc1F [Compound 157, 5-(2-(4-Fluoro-3-methoxyphenyl)pyridin-3-yl)-1H-pyrazolo[3,4-b]pyridine] | 5.81
N#Cc1cc(-c2ncccc2-c2cnc3[nH]ncc3c2)ccc1F [Compound 158, 5-(3-(1H-Pyrazolo[3,4-b]pyridin-5-yl)pyridin-2-yl)-2-fluorobenzonitrile] | 5.73
Cc1cc(-c2ncccc2-c2ccc3ncsc3c2)ccc1F [Compound 159, 6-(2-(4-Fluoro-3-methylphenyl)pyridin-3-yl)benzo[d]thiazole] | 6.88
Cc1cccc(-c2ncccc2-c2ccc3ncsc3c2)c1 [Compound 160, 6-(2-m-Tolylpyridin-3-yl)benzo[d]thiazole] | 7.07
Cc1cc(-c2ncccc2-c2ccc3nncn3c2)ccc1F [Compound 161, 6-(2-(4-Fluoro-3-methylphenyl)pyridin-3-yl)-[1,2,4]triazolo[4,3-a]pyridine] | 5.04
Cc1cccc(-c2ncccc2-c2ccc3nncn3c2)c1 [Compound 162, 6-(2-m-Tolylpyridin-3-yl)-[1,2,4]triazolo[4,3-a]pyridine] | 5.25
Cc1cc(-c2ncccc2-c2ccc3nccn3c2)ccc1F [Compound 165, 6-(2-(4-Fluoro-3-methylphenyl)pyridin-3-yl)imidazo[1,2-a]pyridine] | 6.58
Cc1cccc(-c2ncccc2-c2ccc3nccn3c2)c1 [Compound 166, 6-(2-m-Tolylpyridin-3-yl)imidazo[1,2-a]pyridine] | 6.96
CC(C)c1cccc(-c2ncccc2-c2cnc3[nH]ncc3c2)c1 [Compound 167, 5-(2-(3-Isopropylphenyl)pyridin-3-yl)-1H-pyrazolo[3,4-b]pyridine] | 4.76
C1=C(c2cccc(-c3ncccc3-c3cnc4[nH]ncc4c3)c2)CCC1 [Compound 170, 5-(2-(3-Cyclopentenylphenyl)pyridin-3-yl)-1H-pyrazolo[3,4-b]pyridine] | 5.71
Cc1cc(-c2ncccc2-c2cc3cn[nH]c3cc2C)ccc1F [Compound 173, 5-(2-(4-Fluoro-3-methylphenyl)pyridin-3-yl)-6-methyl-1H-indazole] | 5.74
Cc1cccc(-c2ncccc2-c2cc3cn[nH]c3cc2C)c1 [Compound 174, 6-Methyl-5-(2-m-tolylpyridin-3-yl)-1H-indazole] | 5.93
Cc1cc(-c2ncccc2-c2cc(C)c3[nH]ncc3c2)ccc1F [Compound 175, 5-(2-(4-Fluoro-3-methylphenyl)pyridin-3-yl)-7-methyl-1H-indazole] | 6.93
Cc1cccc(-c2ncccc2-c2cc(C)c3[nH]ncc3c2)c1 [Compound 176, 7-Methyl-5-(2-m-tolylpyridin-3-yl)-1H-indazole] | 7.24
Cc1cc(-c2ncccc2-c2ccc3nc[nH]c3c2)ccc1F [Compound 177, 6-(2-(4-Fluoro-3-methylphenyl)pyridin-3-yl)-1H-benzo[d]imidazole] | 6.44
Cc1cccc(-c2ncccc2-c2ccc3nc[nH]c3c2)c1 [Compound 178, 6-(2-m-Tolylpyridin-3-yl)-1H-benzo[d]imidazole] | 6.73
Cc1cc(-c2ncccc2-c2ccc3ncoc3c2)ccc1F [Compound 180, 6-(2-(4-Fluoro-3-methylphenyl)pyridin-3-yl)benzo[d]oxazole] | 6.37
Cc1cccc(-c2ncccc2-c2ccc3ncoc3c2)c1 [Compound 181, 6-(2-m-Tolylpyridin-3-yl)benzo[d]oxazole] | 6.27
